4 molecules from ChEMBL document CHEMBL3632577, “Lead optimization of the VU0486321 series of mGlu1 PAMs. Part 1: SAR of modifications to the central aryl core” (Bioorg Med Chem Lett, 2015) can be followed below.

pEC50: −log10 of the molar value. Where only a bound is given, the exact number is not on record here.

The test system of one series is Rattus norvegicus. The series can be described thus: Ratio of drug level in plasma to brain in rat at 0.2 mg/kg after 15 mins by cassette study. As to conditions: in vivo, 0.25 h.
In series [1] the target is T1, Metabotropic glutamate receptor 1 (Homo sapiens, UniProt Q13255). The series can be described thus: Positive allosteric modulation of human mGluR1 by calcium mobilization assay. The series is classed as functional. In general terms: A change in cytosolic calcium serves as a functional read-out for many receptors and channels.
Target sequence in this assay (Q13255 whole entry): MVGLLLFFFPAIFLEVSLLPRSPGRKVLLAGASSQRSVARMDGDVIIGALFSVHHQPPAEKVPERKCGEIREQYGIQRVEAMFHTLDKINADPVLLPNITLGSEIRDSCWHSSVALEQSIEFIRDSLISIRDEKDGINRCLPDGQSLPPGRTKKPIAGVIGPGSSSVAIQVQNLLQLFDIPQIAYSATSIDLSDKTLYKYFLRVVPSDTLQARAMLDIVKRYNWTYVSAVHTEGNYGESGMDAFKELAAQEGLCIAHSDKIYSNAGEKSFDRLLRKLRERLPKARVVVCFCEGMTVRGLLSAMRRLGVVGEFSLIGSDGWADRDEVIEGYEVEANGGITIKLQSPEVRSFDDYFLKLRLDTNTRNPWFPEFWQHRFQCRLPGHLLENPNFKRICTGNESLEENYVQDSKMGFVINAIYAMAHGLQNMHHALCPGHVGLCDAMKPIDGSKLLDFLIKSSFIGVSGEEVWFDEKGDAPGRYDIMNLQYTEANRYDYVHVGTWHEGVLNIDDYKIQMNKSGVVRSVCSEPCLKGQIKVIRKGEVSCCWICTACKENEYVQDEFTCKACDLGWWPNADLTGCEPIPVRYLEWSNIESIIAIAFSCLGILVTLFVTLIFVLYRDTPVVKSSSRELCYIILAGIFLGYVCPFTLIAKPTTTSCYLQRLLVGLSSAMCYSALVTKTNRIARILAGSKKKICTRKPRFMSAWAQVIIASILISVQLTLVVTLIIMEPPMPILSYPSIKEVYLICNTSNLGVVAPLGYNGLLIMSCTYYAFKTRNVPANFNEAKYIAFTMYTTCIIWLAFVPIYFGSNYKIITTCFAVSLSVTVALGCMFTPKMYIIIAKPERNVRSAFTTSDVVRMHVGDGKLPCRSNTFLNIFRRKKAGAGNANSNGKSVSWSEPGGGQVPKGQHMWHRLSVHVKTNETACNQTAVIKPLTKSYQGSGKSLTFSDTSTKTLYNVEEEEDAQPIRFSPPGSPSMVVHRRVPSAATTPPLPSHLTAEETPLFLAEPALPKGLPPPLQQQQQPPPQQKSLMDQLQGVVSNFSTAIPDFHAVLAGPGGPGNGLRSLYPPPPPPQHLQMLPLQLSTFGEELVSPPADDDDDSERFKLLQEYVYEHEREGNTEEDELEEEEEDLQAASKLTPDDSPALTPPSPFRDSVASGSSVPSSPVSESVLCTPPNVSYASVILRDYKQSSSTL
For series [2], the target named is T1, Metabotropic glutamate receptor 1. Briefly: Positive allosteric modulation of human mGluR1 by calcium mobilization assay relative to control. The series is classed as functional.
Target sequence in this assay (Q13255 19-1194 limits assumed): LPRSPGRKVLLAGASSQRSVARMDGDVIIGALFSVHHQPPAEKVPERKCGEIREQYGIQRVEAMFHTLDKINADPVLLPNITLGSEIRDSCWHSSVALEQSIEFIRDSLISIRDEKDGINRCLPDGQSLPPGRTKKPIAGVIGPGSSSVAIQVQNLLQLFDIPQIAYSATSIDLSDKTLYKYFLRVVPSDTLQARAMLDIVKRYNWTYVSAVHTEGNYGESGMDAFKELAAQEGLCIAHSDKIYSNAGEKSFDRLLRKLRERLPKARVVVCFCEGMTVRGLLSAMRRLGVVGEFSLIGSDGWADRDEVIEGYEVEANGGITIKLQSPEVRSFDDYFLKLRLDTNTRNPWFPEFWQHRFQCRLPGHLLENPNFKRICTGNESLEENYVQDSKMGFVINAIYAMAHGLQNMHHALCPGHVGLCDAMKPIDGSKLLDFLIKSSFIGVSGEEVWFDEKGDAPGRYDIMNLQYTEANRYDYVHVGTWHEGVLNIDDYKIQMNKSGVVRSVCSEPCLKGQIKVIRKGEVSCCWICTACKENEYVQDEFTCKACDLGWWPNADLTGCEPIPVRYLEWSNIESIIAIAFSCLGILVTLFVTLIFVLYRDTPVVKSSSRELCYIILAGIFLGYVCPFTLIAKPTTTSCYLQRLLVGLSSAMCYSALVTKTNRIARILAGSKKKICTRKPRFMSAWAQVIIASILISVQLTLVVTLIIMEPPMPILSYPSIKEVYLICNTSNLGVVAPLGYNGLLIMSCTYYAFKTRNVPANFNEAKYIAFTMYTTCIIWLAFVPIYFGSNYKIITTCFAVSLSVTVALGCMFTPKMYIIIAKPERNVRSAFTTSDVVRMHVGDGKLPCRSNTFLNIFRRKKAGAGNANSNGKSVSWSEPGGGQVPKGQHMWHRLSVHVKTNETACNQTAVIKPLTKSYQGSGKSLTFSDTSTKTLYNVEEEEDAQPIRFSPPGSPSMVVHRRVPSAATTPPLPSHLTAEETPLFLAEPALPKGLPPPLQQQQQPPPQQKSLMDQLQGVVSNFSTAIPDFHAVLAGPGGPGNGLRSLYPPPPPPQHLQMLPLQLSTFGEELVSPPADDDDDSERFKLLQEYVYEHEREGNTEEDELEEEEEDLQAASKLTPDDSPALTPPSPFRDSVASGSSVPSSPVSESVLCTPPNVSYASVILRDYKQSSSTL
A further series relates to Brain. The series can be described thus: Fraction unbound in rat brain. The series is classed as ADME, tissue-based.
In series [3] the test system is Plasma. The series can be described thus: Fraction unbound in rat plasma. The series is classed as ADME, cell-free.
Series [4] relates to Plasma. Briefly: Fraction unbound in human plasma. The series is classed as ADME, cell-free.
Series [5] has as its target T2, Metabotropic glutamate receptor 4 (Homo sapiens, UniProt Q14833). The series can be described thus: Positive allosteric modulation of human mGluR4 by calcium mobilization assay. Type of series: functional.
The species entered for a further series is Homo sapiens. The series can be described thus: Selectivity ratio of EC50 for human mGluR4 to EC50 for human mGluR1.
Series [6] concerns the target T2, Metabotropic glutamate receptor 4. The series can be described thus: Positive allosteric modulation of human mGluR4 by calcium mobilization assay relative to PHCCC. Type of series: functional.

T2 sequence (Q14833 whole entry): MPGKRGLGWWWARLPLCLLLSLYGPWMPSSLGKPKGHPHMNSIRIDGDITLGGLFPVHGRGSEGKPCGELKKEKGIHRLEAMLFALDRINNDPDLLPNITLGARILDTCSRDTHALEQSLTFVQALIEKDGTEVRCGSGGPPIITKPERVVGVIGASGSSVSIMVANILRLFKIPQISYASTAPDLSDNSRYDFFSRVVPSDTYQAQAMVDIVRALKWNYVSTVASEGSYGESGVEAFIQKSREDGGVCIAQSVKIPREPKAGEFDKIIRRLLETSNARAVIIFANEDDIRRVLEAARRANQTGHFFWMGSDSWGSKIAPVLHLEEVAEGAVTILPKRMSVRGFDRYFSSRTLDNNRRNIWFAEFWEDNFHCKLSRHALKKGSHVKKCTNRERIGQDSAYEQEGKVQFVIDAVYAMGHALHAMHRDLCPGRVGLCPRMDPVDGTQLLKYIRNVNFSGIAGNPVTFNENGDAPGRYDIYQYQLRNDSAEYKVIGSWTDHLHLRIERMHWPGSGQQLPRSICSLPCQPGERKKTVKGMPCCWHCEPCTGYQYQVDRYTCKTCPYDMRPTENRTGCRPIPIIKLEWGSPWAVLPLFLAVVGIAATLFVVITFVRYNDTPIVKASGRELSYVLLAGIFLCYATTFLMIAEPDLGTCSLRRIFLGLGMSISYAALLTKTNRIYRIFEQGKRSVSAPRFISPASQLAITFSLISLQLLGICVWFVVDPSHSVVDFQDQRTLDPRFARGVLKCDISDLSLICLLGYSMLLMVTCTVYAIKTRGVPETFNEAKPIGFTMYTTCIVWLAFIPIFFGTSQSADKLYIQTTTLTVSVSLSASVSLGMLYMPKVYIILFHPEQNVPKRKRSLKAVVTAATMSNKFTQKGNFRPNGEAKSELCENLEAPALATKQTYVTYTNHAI

Regarding `Cc1ccoc1C(=O)Nc1ccc(N2C(=O)c3ccccc3C2=O)cc1Cl`, the Ratio in the series on Rattus norvegicus is 0.12. In addition, the results for the pEC50 in series [1], in series [1] (read-out: EC50) and in series [5] were 7.54, 7.54 and less than 5.00, respectively. The %max in series [2] was 68%. The Fu with Brain, in the series on Plasma [3] and with Plasma [4] was less than 1% in each case.

For the molecule `Cc1ccoc1C(=O)Nc1ccc(N2C(=O)c3ccccc3C2=O)cc1F`, the Ratio in the series on Rattus norvegicus is recorded as 1.57. Also, the pEC50 (in general, the EC50 on a negative log10 scale, so that one unit is a factor of ten) was 7.90 in series [1], 7.89 in series [1] (read-out: EC50) and less than 5.00 in series [5]. For the same molecule, in series [2], the %max stood at 84%. In addition, the Fu in the series on Brain, with Plasma [3] and with Plasma [4] was less than 1% each time.

For the molecule `Cc1ccoc1C(=O)Nc1ccc(N2C(=O)c3ccccc3C2=O)c(C(F)(F)F)c1`, the pEC50 was 6.91 in [1], 6.91 in series [1] (read-out: EC50) and 5.18 in series [5]. In addition, the %max in [2] turned out to be 108%; in series [6], 86%. In addition, the Ratio EC50 in the series listed under Homo sapiens worked out at 54.1.

As to `Cc1ccoc1C(=O)Nc1ccc(N2C(=O)c3cccc(Cl)c3C2=O)c(F)c1`, the values for the negative-log EC50 (pEC50) in series [1], in [1] (read-out: EC50) and in series [5] were 7.56, 7.55 and 6.58, respectively. In addition, the results for the %max in series [2] and in series [6] were 100% and 93%, respectively. In the series filed under Homo sapiens, the Ratio EC50 is 9.5.
